Structures can show the parent of a compound that is named as a salt.

In the first test the test system is Acinetobacter baumannii ATCC17961. The test can be described thus: Antimicrobial susceptibility testing: 90% growth inhibitory concentration (IC90) determination. Format: cell-based. Particulars: Acinetobacter baumannii ATCC17961; Iso-Sensitest broth; growth by OD 600 nm over 16 h; 35±2° C.; read-out: ATCC 17961 IC90. The method, boiled down:
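Twofold serial dilutions (e.g. 50 to 0.097 μM final) in Iso-Sensitest broth, inoculated at ~5×10^(5) CFU/ml, incubated at 35±2° C. OD600 read every 20 min over 16 h; IC90 derived from growth inhibition during logarithmic growth.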
With `Cc1cc(NC(=O)c2ncc(-c3ccc(OCC#N)c(F)c3F)n2C)ccc1C(=O)N1CCN(C(=O)N[C@H]2C[N+](C)(C)C[C@@H]2O)CC1` [Example B29, (3S,4S)-3-(4-(4-(5-(4-(cyanomethoxy)-2,3-difluorophenyl)-1-methyl-1H-imidazole-2-carboxamido)-2-methylbenzoyl)piperazine-1-carboxamido)-4-hydroxy-1,1-dimethylpyrrolidin-1-ium formate], the IC90 (as a rule, the concentration needed for an effect of 90%) was found to be 250 nM.
For `COc1ccc(-c2cnc(C(=O)Nc3ccc(C(=O)N4CCN(C(=O)[C@@H]5C[C@@](C)(O)C[N+]5(C)C)CC4)c(Cl)c3)n2C)c(F)c1F` [Example B30, (2S,4R)-2-(4-(2-chloro-4-(5-(2,3-difluoro-4-methoxyphenyl)-1-methyl-1H-imidazole-2-carboxamido)benzoyl)piperazine-1-carbonyl)-4-hydroxy-1,1,4-trimethylpyrrolidin-1-ium formate], the IC90 was 110 nM.
`Cn1c(-c2ccc(OCC#N)c(F)c2F)cnc1C(=O)Nc1ccc(C(=O)N2CCC(C(=O)N3CC([N+](C)(C)C)C3)CC2)c(Cl)c1` [Example B31, [1-[1-[2-chloro-4-[[5-[4-(cyanomethoxy)-2,3-difluoro-phenyl]-1-methyl-imidazole-2-carbonyl]amino]benzoyl]piperidine-4-carbonyl]azetidin-3-yl]-trimethyl-ammonium; formate]: the IC90 was 250 nM.
On the same count and under the same terms, the same measure for `COc1ccc(-c2cnc(C(=O)Nc3ccc(C(=O)NCc4cnn(CC(=O)N5CC[N+](C)(C)CC5)c4)c(Cl)c3)n2C)c(F)c1F` [Example B32, N-[3-chloro-4-[1-[2-(4,4-dimethylpiperazin-4-ium-1-yl)-2-oxo-ethyl]pyrazol-4-yl]methylcarbamoyl]phenyl]-5-(2,3-difluoro-4-methoxy-phenyl)-1-methyl-imidazole-2-carboxamide; formate]: 200 nM; for `COc1ccc(-c2cnc(C(=O)Nc3ccc(C(=O)N4CCN(C(=O)C5CC[N+](C)(C)CC5O)CC4)c(Cl)c3)n2C)c(F)c1F` (centres unmarked) [Example B33, N-[3-chloro-4-[4-(3-hydroxy-1,1-dimethyl-piperidin-1-ium-4-carbonyl)piperazine-1-carbonyl]phenyl]-5-(2,3-difluoro-4-methoxy-phenyl)-1-methyl-imidazole-2-carboxamide; formate]: 130 nM.
As to `COc1ccc(-c2cnc(C(=O)Nc3ccc(C(=O)N4CCN(C(=O)[C@@H]5COCC[N+]5(C)C)CC4)c(Cl)c3)n2C)c(F)c1F` [Example B35, N-[3-chloro-4-[4-[(3S)-4,4-dimethylmorpholin-4-ium-3-carbonyl]piperazine-1-carbonyl]phenyl]-5-(2,3-difluoro-4-methoxy-phenyl)-1-methyl-imidazole-2-carboxamide; iodide], the 90% effect concentration (IC90) is 130 nM.
In the case of `Cn1c(-c2ccc(OC(F)F)c(Cl)c2F)cnc1C(=O)Nc1ccc(C(=O)N2CCN(C(=O)[C@@H]3C[C@@H](O)C[N+]3(C)C)CC2)c(Cl)c1` [Example B47, 5-[3-chloro-4-(difluoromethoxy)-2-fluoro-phenyl]-N-[3-chloro-4-[4-[(2S,4R)-4-hydroxy-1,1-dimethyl-pyrrolidin-1-ium-2-carbonyl]piperazine-1-carbonyl]phenyl]-1-methyl-imidazole-2-carboxamide; iodide], the IC90 was determined as 39 nM.

The same test, now with this note: Acinetobacter baumannii, ATCC17961, 16 h, read-out: ATCC 17961 IC90, Acinetobacter baumannii ATCC17961; Iso-Sensitest broth; growth by OD 600 nm over 16 h; 35±2° C.
For `COc1ccc(-c2cnc(C(=O)Nc3ccc(C(=O)N4CCN(C(=O)[C@@H]5C[C@H](O)C[N+]5(C)C)CC4)c(Cl)c3)n2C)c(F)c1F` [Example B34, N-[3-chloro-4-[4-[(2S,4S)-4-hydroxy-1,1-dimethyl-pyrrolidin-1-ium-2-carbonyl]piperazine-1-carbonyl]phenyl]-5-(2,3-difluoro-4-methoxy-phenyl)-1-methyl-imidazole-2-carboxamide; formate], the IC90 is 140 nM.
Consider `COc1ccc(-c2cnc(C(=O)Nc3ccc(C(=O)N4CCN(C(=O)[C@@H]5[C@@H](O)CC[N+]5(C)C)CC4)c(Cl)c3)n2C)c(F)c1F` [Example B36, N-[3-chloro-4-[4-[(2S,3S)-3-hydroxy-1,1-dimethyl-pyrrolidin-1-ium-2-carbonyl]piperazine-1-carbonyl]phenyl]-5-(2,3-difluoro-4-methoxy-phenyl)-1-methyl-imidazole-2-carboxamide; formate], for which the IC90 amounted to 220 nM.
With `COc1ccc(-c2cnc(C(=O)Nc3ccc(C(=O)N4CCN(C(=O)[C@@H]5C[C@H](O)CC[N+]5(C)C)CC4)c(Cl)c3)n2C)c(F)c1F` [Example B38, N-[3-chloro-4-[4-[(2S,4R)-4-hydroxy-1,1-dimethyl-piperidin-1-ium-2-carbonyl]piperazine-1-carbonyl]phenyl]-5-(2,3-difluoro-4-methoxy-phenyl)-1-methyl-imidazole-2-carboxamide; formate], the IC90 turned out to be 180 nM.
`COc1ccc(-c2cnc(C(=O)Nc3ccc(C(=O)N4CCN(C(=O)NC5C[N+](C)(C)CC5O)CC4)c(Cl)c3)n2C)c(F)c1F` (centres unmarked) [Example B39, 4-[2-chloro-4-[[5-(2,3-difluoro-4-methoxy-phenyl)-1-methyl-imidazole-2-carbonyl]amino]benzoyl]-N-(4-hydroxy-1,1-dimethyl-pyrrolidin-1-ium-3-yl)piperazine-1-carboxamide; formate]: the IC90 was 110 nM.
Take `COc1ccc(-c2cnc(C(=O)Nc3ccc(C(=O)N4CCN(C(=O)[C@@H]5C[C@@H](O)C[N+]5(C)C)CC4)c(Cl)c3)n2C)c(C(F)F)c1F` [Example B40, N-[3-chloro-4-[4-[(2S,4R)-4-hydroxy-1,1-dimethyl-pyrrolidin-1-ium-2-carbonyl]piperazine-1-carbonyl]phenyl]-5-[2-(difluoromethyl)-3-fluoro-4-methoxy-phenyl]-1-methyl-imidazole-2-carboxamide; formate]: the IC90 came out at 260 nM.
In the case of `Cn1c(-c2ccc(OC(F)F)c(F)c2F)cnc1C(=O)Nc1ccc(C(=O)N2CCN(C(=O)[C@@H]3C[C@@H](O)C[N+]3(C)C)CC2)c(Cl)c1` [Example B41, N-[3-chloro-4-[4-[(2S,4R)-4-hydroxy-1,1-dimethyl-pyrrolidin-1-ium-2-carbonyl]piperazine-1-carbonyl]phenyl]-5-[4-(difluoromethoxy)-2,3-difluoro-phenyl]-1-methyl-imidazole-2-carboxamide; formate], the IC90 is 76 nM.
`COc1ccc(-c2cnc(C(=O)Nc3ccc(C(=O)N4CCN(C(=O)[C@@H]5C[C@@H](CO)C[N+]5(C)C)CC4)c(Cl)c3)n2C)c(F)c1F` [Example B42, N-[3-chloro-4-[4-[(2S,4R)-4-(hydroxymethyl)-1,1-dimethyl-pyrrolidin-1-ium-2-carbonyl]piperazine-1-carbonyl]phenyl]-5-(2,3-difluoro-4-methoxy-phenyl)-1-methyl-imidazole-2-carboxamide; formate]: the IC90 is 140 nM.
As for `COc1ccc(-c2cnc(C(=O)Nc3ccc(C(=O)N4CCN(C(=O)[C@@H]5C[C@@H](O)C[N+]5(C)C)CC4)c(Cl)c3)n2C)c(Cl)c1F` [Example B43, 5-(2-chloro-3-fluoro-4-methoxy-phenyl)-N-[3-chloro-4-[4-[(2S,4R)-4-hydroxy-1,1-dimethyl-pyrrolidin-1-ium-2-carbonyl]piperazine-1-carbonyl]phenyl]-1-methyl-imidazole-2-carboxamide; formate], the IC90 is 120 nM.
The same measure, in the same setting: with `COc1ccc(-c2cnc(C(=O)Nc3ccc(C(=O)N4CCN(C(=O)[C@@H]5[C@H](O)CC[N+]5(C)C)CC4)c(Cl)c3)n2C)c(F)c1F` [Example B44, N-[3-chloro-4-[4-[(2S,3R)-3-hydroxy-1,1-dimethyl-pyrrolidin-1-ium-2-carbonyl]piperazine-1-carbonyl]phenyl]-5-(2,3-difluoro-4-methoxy-phenyl)-1-methyl-imidazole-2-carboxamide; formate] the figure was 420 nM; with `Cn1c(-c2ccc(OCF)c(F)c2F)cnc1C(=O)Nc1ccc(C(=O)N2CCN(C(=O)[C@@H]3C[C@@H](O)C[N+]3(C)C)CC2)c(Cl)c1` [Example B45, N-[3-chloro-4-[4-[(2S,4R)-4-hydroxy-1,1-dimethyl-pyrrolidin-1-ium-2-carbonyl]piperazine-1-carbonyl]phenyl]-5-[2,3-difluoro-4-(fluoromethoxy)phenyl]-1-methyl-imidazole-2-carboxamide; formate], 93 nM; with `COc1ccc(-c2cnc(C(=O)Nc3ccc(C(=O)N4CCN(C(=O)[C@@H]5CC[C@H](O)C[N+]5(C)C)CC4)c(Cl)c3)n2C)c(F)c1F` [Example B46, N-[3-chloro-4-[4-[(2S,5S)-5-hydroxy-1,1-dimethyl-piperidin-1-ium-2-carbonyl]piperazine-1-carbonyl]phenyl]-5-(2,3-difluoro-4-methoxy-phenyl)-1-methyl-imidazole-2-carboxamide; formate], 120 nM.
The same measure, in the same setting: the same measure for `COc1ccc(-c2cnc(C(=O)Nc3ccc(C(=O)N4CCN(C(=O)[C@@H]5C[C@@H](O)C[N+]5(C)C)CC4)c(Cl)c3)n2C)c(F)c1Cl` [Example B48, 5-(3-chloro-2-fluoro-4-methoxy-phenyl)-N-[3-chloro-4-[4-[(2S,4R)-4-hydroxy-1,1-dimethyl-pyrrolidin-1-ium-2-carbonyl]piperazine-1-carbonyl]phenyl]-1-methyl-imidazole-2-carboxamide formate]: 76 nM; for `COc1ccc(-c2cnc(C(=O)Nc3ccc(C(=O)N4CCN(C(=O)[C@@H]5C=CC[N+]5(C)C)CC4)c(Cl)c3)n2C)c(F)c1F` [Example B49, N-[3-chloro-4-[4-[(2S)-1,1-dimethyl-2,5-dihydropyrrol-1-ium-2-carbonyl]piperazine-1-carbonyl]phenyl]-5-(2,3-difluoro-4-methoxy-phenyl)-1-methyl-imidazole-2-carboxamide formate]: 120 nM.

These data come from patent US20240376073A1 (Hoffmann-La Roche Inc., priority 2021, published 2024).
